Test results taken from PubChem BioAssay AID652047 (Broad Institute, 2013).

System: P. falciparum 3D7 in RBCs, SYBR Green DNA fluorescence
Assay: growth inhibition of P. falciparum 3D7, dose response, 3D7 strain, red blood cells, SYBR Green, cherry-picked (AID 652047)

Row | Structure (SMILES) | AC35
1 | Cc1ccc2c(C)c3ccc4ccccc4c3c[n+]2c1 | 0.0368 µM
2 | Oc1ccccc1-c1cc(-c2ccc3c(c2)OCCO3)n[nH]1 | 15.2 µM
3 | Cc1ccc(-n2nnnc2SCC(=O)N2CCc3ccccc3C2)c(C)c1 | 30.7 µM
4 | Oc1c(C(Nc2cccc(C(F)(F)F)c2)c2ccncc2)ccc2cccnc12 (stereo not given) | 0.879 µM
5 | Cc1nc(SCc2ccc(OCCC(C)C)cc2)n[nH]1 | 16.5 µM
6 | Nc1cc2nc3ccccc3oc-2cc1=O | 2.14 µM
7 | Cc1cccc(N2CCN(C(=O)C3COc4ccccc4O3)CC2)c1C (stereo not given) | 34.3 µM
8 | CC(C)C(=O)NC(c1ccco1)c1ccc2cccnc2c1O (stereo not given) | 2.02 µM
9 | COc1ccc(-c2cc(C(=O)N3CCN(c4ccccc4F)CC3)c3ccccc3n2)c(OC)c1 | 9.76 µM
10 | CCCCC(=O)NC(=S)NNC(=O)CCc1ccccc1 | 20.8 µM
11 | O=C(NCc1ccncc1)c1ccccc1Nc1ccc(SC(F)F)cc1 | 21.1 µM
12 | O=C(/C(=N/N=C/c1ccc(O)c(O)c1O)c1ccccc1)c1ccccc1 | 4.96 µM
13 | O=C(c1ccc(-c2ccccc2)cc1)C1CCCN(C(=O)c2cncs2)C1 (stereo not given) | 9.45 µM
14 | CC1(C(=O)OCC(=O)Nc2ccc3ccccc3c2)CC1(Cl)Cl (stereo not given) | 42.6 µM
15 | CNc1ccc2oc(C[C@H]3O[C@@]4(CC[C@H]3C)O[C@H]([C@H](C)C(=O)c3ccc[nH]3)[C@H](C)C[C@H]4C)nc2c1C(=O)O | 1.01 µM
16 | CCCOc1ccc(S(=O)(=O)n2cc(F)c(=O)[nH]c2=O)cc1 | 30.4 µM
17 | Cc1ccc(-c2c3c(nc4sc(C(N)=O)c(N)c24)CCCC3)o1 | 42.6 µM
18 | CCN(CC)c1ccc(/C=N/NC(=O)c2c(Cl)cnn2C)c(O)c1 | 3.27 µM
19 | Cc1cc(-c2ccccc2)n(-c2cc(N/N=C/c3ccccc3O)ncn2)n1 | 3.99 µM
20 | Clc1ccc(C(Cn2ccnc2)OCc2c(Cl)cccc2Cl)c(Cl)c1 (stereo not given) | 2.76 µM

Row | Structure (SMILES) | AC35
21 | O/N=C(\c1ccc(Cl)cc1Cl)c1ncc(C(F)(F)F)cc1Cl | 16.9 µM
22 | CCCCCCC(Cl)(Cn1ccnc1)c1ccccc1 (stereo not given) | 4.06 µM
23 | Cc1cccc(Nc2nc(-c3ccc(O)cc3O)cs2)n1 | 20.3 µM
24 | O=S(=O)(c1ccc(Cl)cc1)N1CCC2(CC1)OCCN2S(=O)(=O)c1cccs1 | 24.8 µM
25 | c1ccc(C(=NNc2nc3ccccc3s2)c2ccccn2)cc1 | 1.5 µM
26 | CCC1=NN(C(=O)c2cccc(Br)c2)C(O)(c2ccc(Br)cc2)C1 (stereo not given) | 14.7 µM
27 | CCN1C(=O)C(CC(=O)Nc2ccccc2Cl)N(NC(=O)c2cccc(F)c2)C1=S (stereo not given) | 21.2 µM
28 | CN(C)c1ccc(C=c2c3cc(O)ccc3n3c2cc(-c2ccccc2)[n+]3C)cc1 | 0.127 µM
29 | Cc1ccc(NC(=O)CN(C)C(=O)c2cccnc2Nc2cccc(C(F)(F)F)c2)cc1 | 7.58 µM
30 | Cc1ccc(NS(=O)(=O)c2ccc(N3CCN(c4ccc(O)cc4)CC3)c([N+](=O)[O-])c2)c(C)c1 | 17.2 µM
31 | c1ccc(CSc2ccc(-c3ccccn3)nn2)nc1 | 19 µM
32 | CC1(C)C2CCC1(C)C(OC(=O)c1ccc(O)cc1)C2 (stereo not given) | 12.2 µM
33 | O=Cc1cc(N=Nc2ccccc2Cl)ccc1O | 2.77 µM
34 | CCC(C)n1ncn(-c2ccc(N3CCN(c4ccc(OCC5COC(Cn6cncn6)(c6ccc(Cl)cc6Cl)O5)cc4)CC3)cc2)c1=O (stereo not given) | 4.24 µM
35 | COc1ccc(C(=O)On2c(-c3ccc(Br)cc3)nc3ccccc3c2=O)cc1 | 5.71 µM
36 | CCC(C)c1ccc(NC(=S)NCCn2cc(Br)cn2)cc1 (stereo not given) | 13.9 µM
37 | Cc1ccc(Sc2cc(C)nc(-c3ccccn3)n2)cc1 | 3.19 µM
38 | O=C1c2cccc(Cl)c2C(=O)c2c1cccc2N1CCCC1 | 22.7 µM
39 | CCCCCOc1ccc(CSc2n[nH]c(C)n2)cc1 | 18.6 µM
40 | Cc1ccoc1C(=O)Nc1cccc(Oc2ccccc2)c1 | 10.4 µM

Row | Structure (SMILES) | AC35
41 | CC(=O)C1=C(c2ccc(Br)cc2)C(=O)c2ccccc2C1=O | 0.82 µM
42 | CC(=O)NC(c1cccc([N+](=O)[O-])c1)c1ccc2cccnc2c1O (stereo not given) | 2 µM
43 | CCCCCCn1c(=O)c(C(=O)Nc2ncccc2C)c(O)c2ccccc21 | 2.57 µM
44 | Cc1ccsc1/C=C/c1ccc2cccc(O)c2n1 | 14.2 µM
45 | CCCCCCCc1ccc(-c2ccc(O)cc2)nc1 | 7.43 µM
46 | Oc1c(I)cc(Cl)c2cccnc12 | 2.33 µM
47 | O=C(Oc1c(Cl)cc(Cl)c2cccnc12)c1cccs1 | 17.7 µM
48 | Cc1c(C(=O)O)cccc1-c1ccc(/C=N/Nc2ccc(Br)cc2)o1 | 20.2 µM
49 | Cc1cccc2sc(NNC(=O)c3ccc(S(=O)(=O)N4CCCC(C)C4)cc3)nc12 (stereo not given) | 3.46 µM
50 | O=C(Nc1nc(-c2ccccn2)cs1)c1ccc(Br)s1 | 0.663 µM
51 | CCCCC(=O)NC(c1ccco1)c1cc(Cl)c2cccnc2c1O (stereo not given) | 1.48 µM
52 | Cc1c(C2(O)CCCCC2)[nH]c2ccc(C(F)(F)F)cc12 | 27.4 µM
53 | O=C(CC1CC2CCC1C2)Nc1nc(-c2ccccn2)cs1 (stereo not given) | 2.94 µM
54 | Cn1nc(C(F)(F)F)c(C#N)c1N1CCN(c2ccc(F)cc2)CC1 | 41.9 µM
55 | Clc1nc(-c2ccccn2)nc2scc(-c3ccccc3)c12 | 2.34 µM
56 | CC(C)N1CCN(c2ccc(OCC3COC(Cn4cncn4)(c4ccc(Cl)cc4Cl)O3)cc2)CC1 (stereo not given) | 3.77 µM
57 | CCCCNc1c(-c2ccc(-c3ccc(OC)cc3)c(OC)c2)nc2ccccn12 | 5.67 µM
58 | Cc1oc2c(c1C(=O)c1ccccc1)C(=O)C(=O)c1ccccc1-2 | 3.23 µM
59 | Cc1cccc(Oc2nc(-c3ccccn3)nc3ccccc23)c1 | 3.89 µM
60 | CCCS(=O)(=O)c1c(S(=O)(=O)CCC)c2c(C)cccn2c1C(=O)N/N=C/c1cc(O)cc(O)c1 | 8.14 µM
